Source: patent publication US9783510B2, “Small molecule mediated transcriptional induction of E-cadherin” (Vanderbilt University, priority 2014, dated 2017)

Experiments:
[1] = test system: E-cadherin expression in SW620 cells; assay: E-cadherin expression, in-cell Western (ICW), SW620 cells; assay type: cell-based; conditions: Homo sapiens; for fold induction at 10 µM: SW-620, 24 h, change in expression level of E-cadherin in response to 10 μM compound, 24 hours, SW620 cells; for EC50: SW-620, inducement of E-cadherin expression in SW620 cells
Procedure, shortened: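 SW620 cells were treated with compound for 24 h in RPMI 1640 (single-point at 10 μM; EC50 also determined), in quadruplicate. After methanol fixation, in-cell Western with anti-E-cadherin and anti-α-tubulin primaries and IRDye 800/700 secondaries. Read on an Odyssey IR imager.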

[2] = test system: E-cadherin expression in H520 cells; assay: E-cadherin expression, in-cell Western (ICW), H520 cells; assay type: cell-based; conditions: Homo sapiens, NCI-H520; for fold induction at 10 µM: change in expression level of E-cadherin in response to 10 μM compound, 24 hours, H520 cells; for EC50: inducement of E-cadherin expression in H520 cells
Protocol: SW620 and H520 cells (5×10^4/100 μL) were seeded in a 96-well plate prior to treatment. Cells were treated with 10 μM concentration of synthesized compound in quadruplicate for 24 hours in RPMI 1640 supplemented medium and 100 μg/mL penicillin-streptomycin. The cells were then fixed with 100% methanol for 20 minutes at 4° C. The wells were then washed 2 times with PBS, permeabilized in 2% bovine serum albumin (BSA) and 0.2% TritonX-100 in PBS for 30 minutes at room temperature with gentle agitation, and blocked in LI-COR blocking buffer for 30 minutes at room temperature with gentle agitation. The cells were then incubated with the following primary antibodies: anti-E-Cadherin (1:500) and anti-α-Tubulin (1:1000) diluted in blocking buffer (1:1 dilution in PBS) for 2 hours at room temperature with gentle agitation. The cells were washed 4 times in PBS-T for 5 minutes each, and then incubated with the following secondary antibodies conjugated to a fluorescent entity: IRDye 800-conjugated goat anti-rabbit IgG (1:1000) and IRDye-700-conjugated goat anti-mouse IgG (1:2000) in blocking buffer (1:1 dilution in PBS) with gentle agitation for 1 h at room temperature. The cells were washed 4 times in PBS-T for 5 minutes each followed by a single wash with PBS. All liquid was removed from the wells and the plates were visualized and analyzed on the Odyssey IR imaging system (LI-COR Biosciences).
The assay was further optimized in the following manner. The cells were washed 2 times with PBS, fixed in 100% methanol at room temperature for 15 minutes, and again washed 2 times with PBS. The cells were then incubated with the following primary antibodies: anti-E-Cadherin (1:200) and anti-α-Tubulin (1:2000) diluted in ice cold 2% bovine serum albumin (BSA) and 0.2% TritonX-100 in PBS for 1 hour at room temperature with gentle agitation. The cells were washed 2 times in PBS and then incubated with the following secondary antibodies conjugated to a fluorescent entity: Licor 800-conjugated goat anti-rabbit IgG (1:2000) and IRDye-700-conjugated goat anti-mouse IgG (1:2000) in ice cold 2% BSA and 0.2% TritonX-100 in PBS with gentle agitation for 45 minutes at room temperature. The wells were washed 2 times in PBS, dried, and analyzed as previously mentioned.
Changes in expression level of E-cadherin in response to 10 μM compound in H520 cells was determined in a cell-based functional assay as described above, and the data are shown in Table IV. The compound number corresponds to the compound numbers used in Table II.
EC50 of inducement of E-cadherin expression in H520 cells was determined in a cell-based functional assay as described above, and the data are shown in Table VI. The compound number corresponds to the compound numbers used in Table II.

[3] = test system: cyclin D1 protein; assay: Cyclin D1 protein by ICW (control for cycloheximide); assay type: cell-based; conditions: within the 7 hour experimental interval
Protocol: Compound 13 increased the mRNA levels of E-cadherin specific mRNA by 27-fold in SW620inv cells (FIG. 3B) and by 20-fold in H520 cells (FIG. 3C) by 6 hours post-treatment. […] Whether de novo protein synthesis was required for the effect of Compound 13 on E-cadherin mRNA expression was determined. For these experiments, cells were treated with cycloheximide prior to application of Compound 13 and the expression of E-cadherin mRNA was evaluated 6 hours post-treatment for best sensitivity. The levels of cyclin D1 protein, known to have a very short half-life of ˜20 minutes (Diehl, J. A., et al. (1998) Genes & Development 12, 3499-3511), were analyzed as a positive control for the effectiveness of cycloheximide (CHX) treatment.
Referring to FIG. 4B and FIG. 4C, quantification of cyclin D1 protein by ICW, as described above, and under similar conditions as in (4A) at 6 h post-treatment with or without cyclohexamide.

[4] = test system: proximal region of the E-cadherin promoter (Cdh1) in SW620inv cells; assay: ChIP assay at proximal E-cadherin promoter, SW620inv cells; assay type: cell-based; conditions: ChIP (FIG. 8)
[5] = test system: E-cadherin, H3K9Ac, H3K4me3, H3K27me3, H3K4me2 in SW620inv cells; assay: Western blot time course of E-cadherin and histone H3 marks, SW620inv cells; assay type: cell-based
[6] = test system: HMEC-1 cells; assay: E-cadherin, VE-cadherin, Vimentin and histone marks in HMEC-1 cells (qPCR, Western blot); assay type: cell-based, human; conditions: after 48 hours of treatment

Structure (SMILES)	fold induction at 10 µM [1]	fold induction at 10 µM [2]	other results
O=C(NCCNC(=O)c1cc(F)ccc1O)c1cc(-c2ccccc2)[nH]n1 [Compound 122, N-(2-(5-fluoro-2-hydroxybenzamido)ethyl)-5-phenyl-1H-pyrazole-3-carboxamide]	1.45	1.04	
O=C(NCCNC(=O)c1cc(-c2ccccc2)on1)c1ccncc1 [Compound 4, N-(2-(isonicotinamido)ethyl)-5-phenylisoxazole-3-carboxamide]	2.79	2.87	EC50 [1]: 8.8 µM; EC50 [2]: 5.1 µM
O=C(NCCNC(=O)c1nccs1)c1cc(-c2ccccc2)[nH]n1 [Compound 125, N-(2-(5-phenyl-1H-pyrazole-3-carboxamido)ethyl)thiazole-2-carboxamide]	1.77	1.1	
O=C(NCCNC(=O)c1cc(Br)ccc1O)c1cc(-c2ccccc2)on1 [Compound 2, N-(2-(5-bromo-2-hydroxybenzamido)ethyl)-5-phenylisoxazole-3-carboxamide]	1.18	1.14	
O=C(NCCCNC(=O)c1cc(F)ccc1O)c1cc(-c2ccccc2)on1 [Compound 20, N-(3-(5-fluoro-2-hydroxybenzamido)propyl)-5-phenylisoxazole-3-carboxamide]	2.43	5.27	EC50 [1]: 5 µM; EC50 [2]: 1.4 µM
O=C(Cc1ccccc1O)NCCCNC(=O)c1cc(-c2ccccc2)on1 [Compound 21, N-(3-(2-(2-hydroxyphenyl)acetamido)propyl)-5-phenylisoxazole-3-carboxamide]	4.92	5.92	EC50 [1]: 4.97 µM; EC50 [2]: 1.5 µM
O=C(NCCCNC(=O)c1n[nH]c2ccccc12)c1cc(-c2ccccc2)on1 [Compound 22, N-(3-(1H-indazole-3-carboxamido)propyl)-5-phenylisoxazole-3-carboxamide]	1.62	1.88	
C[C@@H]1C[C@@H]([C@H](O)CC2CC(=O)NC(=O)C2)C(=O)[C@@H](C)C1 [cycloheximide]			cyclin D1 levels [3]: markedly reduced; β-actin protein levels [3]: not significantly altered
O=C(NCCNC(=O)c1cc(-c2ccccc2)[nH]n1)c1ccncc1 [Compound 124, N-(2-(5-phenyl-1H-pyrazole-3-carboxamido)ethyl)isonicotinamide]	1.29	1.22	Pol II association with the E-cadherin proximal promoter [4]: did not show any effect
O=C(Cc1ccccc1O)NCCNC(=O)c1cc(-c2ccccc2)on1 [Compound 1, N-(2-(2-(2-hydroxyphenyl)acetamido)ethyl)-5-phenylisoxazole-3-carboxamide]	3.4	3.51	EC50 [1]: 3.7 µM; EC50 [2]: 5.6 µM
CC(/C=C/C(=O)NO)=C\[C@@H](C)C(=O)c1ccc(N(C)C)cc1 [TSA, trichostatin A]			modification of the repressive marker H3K27me3 [5]: Less overall modification; time of peak of H3K9Ac and H3K4me3 levels ([5]; 0.33 μM TSA): 6 h; time at which increase in H3K9Ac and H3K4me3 levels is first observed ([5]; 10 μM Compound 13, 0.33 μM TSA): 1 h; restoring E-cadherin in HMEC-1 cells [6]: neither TSA nor 5-Aza, nor the combination of these two agents, was effective
O=C(Cc1ccccc1O)NCCNC(=O)c1cc(-c2ccccc2)[nH]n1 [Compound 123, N-(2-(2-(2-hydroxyphenyl)acetamido)ethyl)-5-phenyl-1H-pyrazole-3-carboxamide]	1.37	1.24	
Cc1ncccc1C(=O)NCCCNC(=O)c1cc(-c2cccs2)on1 [Compound 47, N-(3-(2-methylnicotinamido)propyl)-5-(thiophen-2-yl)isoxazole-3-carboxamide]	2.72		
O=C(NCCNC(=O)c1nccs1)c1cc(-c2ccccc2)on1 [Compound 5, 5-phenyl-N-(2-(thiazole-2-carboxamido)ethyl)isoxazole-3-carboxamide]	8.98	4.22	EC50 [1]: 4.8 µM
COc1ncccc1C(=O)NCCCNC(=O)c1cc(-c2ccccc2)on1 [Compound 70, N-(3-(2-methoxynicotinamido)propyl)-5-phenylisoxazole-3-carboxamide]	2.62		
Cc1ccc(C(=O)NCCCNC(=O)c2cc(-c3cccs3)on2)o1 [Compound 77, N-(3-(5-methylfuran-2-carboxamido)propyl)-5-(thiophen-2-yl)isoxazole-3-carboxamide]	2.99		
O=C(NCCCNC(=O)c1ncccc1F)c1cc(-c2ccccc2)on1 [Compound 61, N-(3-(3-fluoropicolinamido)propyl)-5-phenylisoxazole-3-carboxamide]	2.94		
O=C(NCCCNC(=O)c1ccncc1O)c1cc(-c2ccccc2)on1 [Compound 59, N-(3-(3-hydroxyisonicotinamido)propyl)-5-phenylisoxazole-3-carboxamide]	1.26		
O=C(NCCCNC(=O)c1ccno1)c1cc(-c2cccs2)on1 [Compound 102, N-(3-(isoxazole-5-carboxamido)propyl)-5-(thiophen-2-yl)isoxazole-3-carboxamide]	2.87		
Nc1ncn([C@@H]2O[C@H](CO)[C@@H](O)[C@H]2O)c(=O)n1 [Compound 5-Aza, 5-azacytidine]			restoring E-cadherin in HMEC-1 cells [6]: neither TSA nor 5-Aza, nor the combination of these two agents, was effective
Cc1scnc1C(=O)NCCNC(=O)c1cc(-c2ccccc2)on1 [Compound 11, N-(2-(5-methylthiazole-4-carboxamido)ethyl)-5-phenylisoxazole-3-carboxamide]	2.08		
O=C(NCCCNC(=O)c1cccc(Cl)n1)c1cc(-c2cccs2)on1 [Compound 81, N-(3-(6-chloropicolinamido)propyl)-5-(thiophen-2-yl)isoxazole-3-carboxamide]	3.09		
